From patent US20230119013A1, “N-CYANOPYRROLIDINES WITH ACTIVITY AS USP30 INHIBITORS” (MISSION THERAPEUTICS LIMITED, priority 2020, published 2023)
Like-named read-outs stand apart in the source and are kept apart here.

Legend:
[1] = FaSSIF solubility; assay type: physicochemical; conditions: pH 6.5, simulated intestinal fluid in fasted state
From the text: log P: partition coefficient; lipophilicity measurement. log D: distribution co-efficient; lipophilicity measurement. TPSA: topological polar surface area. Turbidimetric solubility: Test compound solution prepared in DMSO diluted into aqueous buffer. Turbidimetry is used as the end-point by measuring absorbance at 620 nm. FaSSIF: simulated intestinal fluid in fasted state measured at pH 6.5. Hep Cl mouse: in vitro hepatocyte clearance in mouse cells. Hep Cl human: in vitro hepatocyte clearance in human cells. Plasma fu,p: The free fraction of a compound in plasma preparation determined by in vitro equilibrium dialysis. It is understood that only unbound (free) compound is capable of engaging with the target. Brain fu,br: The free fraction of a compound in brain homogenate preparation determined by in vitro equilibrium dialysis. It is understood that only unbound (free) compound is capable of engaging with the target. Clu: in vitro clearance. Clu as defined here is the scaled clearance, in turn calculated from the intrinsic clearance. The intrinsic clearance is the predicted clearance due to hepatic metabolic reactions, determined from incubation of a compound in a hepatocyte preparation. […] Cl in vivo clearance: Pharmacokinetic measurement of the volume of plasma (or any matrix) from which a substance is completely removed per unit time.

[2] = target: Cathepsin L (Homo sapiens, UniProt P07711); assay: Cathepsin IC50, Cathepsin L; assay type: biochemical
[3] = tested on: TK6 cells; assay: In vitro micronucleus assay in TK6 cells; assay type: cell-based; conditions: 27 hours recovery
Experimental: The micronucleus assay may be used to determine if a compound is genotoxic by evaluating the presence of micronuclei. Micronuclei may contain chromosome fragments produced from DNA breakage (clastogens) or whole chromosomes produced by disruption of the mitotic apparatus (aneugens).
Example 1 was assessed in the bacterial reverse mutation assay (Ames) and in vitro micronucleus assay. All in vitro tests were conducted with and without exogenous metabolic activation using concentrations up to those limited by cytotoxicity or insolubility.
Induction of chromosome damage was assessed using the in vitro micronucleus assay in TK6 cells. Example 1 was negative for induction of micronuclei when incubated for 3 hours in the presence of exogenous metabolic activation followed by 27 hours recovery, and also when incubated for 27 hours in the absence of exogenous metabolic activation followed by 27 hours recovery.

[4] = tested on: T1, UCHL1, USP1, USP2, USP6, USP9x, USP10, USP15, USP16, USP20, USP21, USP22, USP25, USP28, USP35, USP36, USP46/UAF1; assay: DUB biochemical IC50 assays (off-target panel); conditions: each of UCHL1, USP1, USP2, USP6, USP9x, USP10, USP15, USP16, USP20, USP21, USP22, USP25, USP28, USP35, USP36, USP46/UAF1; read-out: IC50 (μM) against DUB panel
T1 construct: other: each of UCHL1, USP1, USP2, USP6, USP9x, USP10, USP15, USP16, USP20, USP21, USP22, U

[5] = target: T2, USP30 (Mus musculus, UniProt Q3UN04); assay: USP30 brain tissue target engagement assay (TE ex vivo); assay type: in vivo; conditions: 2 mg/kg iv, n = 2 avg
T2 construct: in either brain or kidney tissue samples from compound-dosed animals; from tissue; b325 calls 'TE ex vivo' a kidney tissue assay
Experimental: 50 to 100 mg of tissue was homogenised in 3× volume of lysis buffer (50 mM Tris-base, pH 7.5, 50 mM NaCl, 1% NP-40/Igepal CA-630, 2 mM MgCl2, 10% Glycerol, 5 mM beta-mercaptoethanol, cOmplete mini tablets EDTA free (Roche), PhosStop tablets (Roche)) using the Retch Mixer Mill (MM400). The lysates were cleared and protein quantified using the Bradford Protein assay (Pierce). Lysate containing 60 μg protein was incubated with a final conc of 24 μM of HA-Ahx-Ahx-Ub-VME probe for 60 mins at room temperature. The reaction was stopped by addition of 5×SDS sample loading buffer and proteins separated by SDS-PAGE and western blotting. USP30 was detected using an anti-USP30 Sheep S746D antibody (MRC PPU Reagents and Services) and a rabbit anti sheep secondary IgG (H+L) horseradish peroxidase conjugated (Thermo #31480) and visualised using ECL reagent (GE #RPN2109) on a GE LAS4000 imager. Target engagement was measured by quantitation of the bands corresponding to USP30 and USP30 bound to the Ub-VME probe and expression of this proportion compared to vehicle treated control.
MDR1-MDCK (Madin-Darby Canine Kidney cell monolayer) (in vitro) flux assay. Cell TE WB: USP30 endogenous cellular target engagement western blot (WB) assay. Assays the activity of compounds against USP30 in cells using an irreversible activity probe to monitor USP30 activity. […]

[6] = tested on: T3, UCHL1, USP1, USP2, USP6, USP9x, USP10, USP15, USP16, USP20, USP21, USP22, USP25, USP28, USP35, USP36, USP46/UAF1; assay: DUB biochemical IC50 assays (off-target panel); conditions: each of UCHL1, USP1, USP9x, USP10, USP15, USP16, USP20, USP21, USP22, USP25, USP28, USP35, USP36, USP46/UAF1; read-out: IC50 (μM) against DUB panel
T3 construct: other: each of UCHL1, USP1, USP9x, USP10, USP15, USP16, USP20, USP21, USP22, USP25, USP28

T2 sequence (Q3UN04 whole entry): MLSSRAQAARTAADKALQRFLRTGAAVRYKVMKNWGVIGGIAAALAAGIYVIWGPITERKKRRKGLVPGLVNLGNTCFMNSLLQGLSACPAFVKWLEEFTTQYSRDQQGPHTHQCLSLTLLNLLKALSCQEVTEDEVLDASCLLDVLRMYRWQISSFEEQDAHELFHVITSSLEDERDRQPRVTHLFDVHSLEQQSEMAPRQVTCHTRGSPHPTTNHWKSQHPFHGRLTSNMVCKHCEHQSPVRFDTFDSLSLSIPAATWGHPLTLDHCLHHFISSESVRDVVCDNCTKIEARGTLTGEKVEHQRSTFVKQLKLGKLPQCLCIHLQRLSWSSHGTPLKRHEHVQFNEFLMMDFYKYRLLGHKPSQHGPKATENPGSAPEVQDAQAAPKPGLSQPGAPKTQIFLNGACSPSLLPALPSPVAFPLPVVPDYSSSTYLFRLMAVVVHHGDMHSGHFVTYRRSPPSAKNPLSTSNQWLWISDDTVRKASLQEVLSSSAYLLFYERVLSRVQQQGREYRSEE
Sequence of Cathepsin L (P07711 114-333, species assumed): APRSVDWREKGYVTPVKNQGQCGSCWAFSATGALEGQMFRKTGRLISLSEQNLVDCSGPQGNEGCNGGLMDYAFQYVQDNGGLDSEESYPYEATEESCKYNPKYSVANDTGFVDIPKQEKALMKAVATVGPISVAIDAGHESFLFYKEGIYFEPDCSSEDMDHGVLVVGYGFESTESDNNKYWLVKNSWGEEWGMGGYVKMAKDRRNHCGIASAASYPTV

For COC[C@@H]1C[C@@H](NC(=O)c2ncc(-c3cccc(OC(F)(F)F)c3)o2)CN1C#N [Example 1, N-((3R,5S)-1-Cyano-5-(methoxymethyl)pyrrolidin-3-yl)-5-(3-(trifluoromethoxy)phenyl)oxazole-2-carboxamide], the “FaSSIF (μM) measured at pH 6.5” value [1] was 89 μM, the IC50 [2] was 17.7 µM and the induction of micronuclei ([3]; 3 hours in the presence of exogenous metabolic activation) was “negative”. The induction of micronuclei ([3]; 27 hours in the absence of exogenous metabolic activation) was “negative” and the IC50 [4] was at least 4.4 µM.

With C[C@@H]1C[C@@H](NC(=O)c2ncc(-c3cccc(OC(F)(F)F)c3)o2)CN1C#N [Example 2, N-((3R,5R)-1-Cyano-5-methylpyrrolidin-3-yl)-5-(3-(trifluoromethoxy)phenyl)oxazole-2-carboxamide] the “FaSSIF (μM) measured at pH 6.5” value [1] was 25 μM, the “TE ex vivo Mouse brain (%) at 15 min” value ([5]; 15 min) was 68% and the “TE ex vivo Mouse brain (%) at 60 min” value ([5]; 60 min) was 25%. For the same compound, the IC50 [6] was at least 4.7 µM.
